Columns and labels:
[1] = test system: Balb/c to C57BL/6 skin graft; assay: Balb/c to C57BL/6 full-thickness skin graft survival; assay type: in vivo, mouse; conditions: oral, bid
Description: Skin transplantation. Murine full-thickness allo-skin transplantation to study graft rejection was conducted according to a previously well-described protocol (Cheng et al, 2017). All procedures were conducted in accordance with the Guide for the Care and Use of Laboratory Animals of the National Institute of Health (NIH) and were approved by the animal ethics committee of Guangzhou University of Chinese Medicine.
Briefly, donor mice (Balb/c) were anesthetized with isoflurane (induction vaporizer at 4%, maintenance at 1-2% through the mouse cone). The toe pinch withdrawal reflex was used to monitor the depth of anesthesia. The back of the animal was shaved with an electric razor and disinfected with 10% povidone iodine. Using sterile scissors, gloves, and aseptic technique, donor back skin was harvested from the hip to the neck with blunt dissection at the level of the areolar connective tissue. After harvesting the skin graft, the animal was euthanized by cervical dislocation. Under a microscope, the connective tissue, fat tissue, and panniculus carnosus were separated from the back skin using fine tenotomy scissors. Using sterile technique, 15-mm×15-mm grafts were cut out from the back skin for a 10-mm×10-mm to 15-mm×15-mm graft bed (10 grafts were obtained from one donor mouse). The grafts were stored on gauze soaked with sterile phosphate-buffered saline (PBS) in a petri dish on ice.
The recipient mice (C57BL/6) were anesthetized with isoflurane. Buprenorphine (0.02 mg/kg) was administrated for postoperative pain relief. The side of the back of the animal where the graft will be inserted was shaved and disinfected with 10% povidone iodine. A 10-mm×10-mm to 15-mm×15-mm square of skin was intersected using scissors. The defect size was slightly larger (10%) than the graft. The graft was positioned on the graft bed avoiding folds along the edges. Eight sutures were placed on the corners and on the middle of each edge. […] When the graft was considered as successful, it was then monitored daily for signs of rejection. […]

[2] = test system: cell surface markers CD80, Ly6C, CD206, CXCR4, CCR2; assay: Endometriosis mouse model, cell surface marker expression of peritoneal immune cells (flow cytometry); assay type: in vivo; conditions: 50 mg/kg/day, 5 times a week, 6 weeks
Description: Experimental design. Balb/C female mice (10 weeks old) were habituated for 3 days to take a jelly containing (group EDT+2,4D) or not (groups No EDT and EDT+Vehicle) the compound. Surgical implantation of endometrial tissue from syngenic female in peritoneum, was performed at day 0 for groups EDT+Vehicle and EDT+2,4D. […] The vehicle or treatment was then given 5 times a week (50 mg/kg/day) during 6 weeks. Mice were then sacrificed and the peritoneal inflammation was assessed. All the details of the protocol are depicted in FIG. 27. Cytokine measurement in cell-free peritoneal lavage. After mice were euthanized, 5 mL of PBS was injected into the peritoneal cavity and the diluted peritoneal fluid containing the cells was then retrieved. The cells were pelleted by centrifugation at 500×g 4° C. and the supernatant (cell-free peritoneal fluid) was frozen at −80° C. for subsequent cytokine concentration measurement by ELISA. Cytokine concentration was assessed by ELISA kit in the peritoneal fluid (ThermoFisher, Mouse IL-1β, IL6 and TNFalpha Uncoated ELISA). […] The optical density was read with the Clariostar Plus Microplate Reader (BMG LABTECH), through the Clario software. Concentrations were calculated from a standard curve according to the manufacturer's protocol. Phenotypic study of immune cells from the peritoneal cavity assessed by flow cytometry. The pelleted peritoneal cells were resuspended in PBS-2% FBS and counted. One million cells were stained with the following fluorophore-conjugated antibodies purchased from BioLegend: CD45 BV510, CD11b APC-Cy7, CD11c PE, F4/80 BV711, CD80 PE Cy5, CD206 AF647, Ly-6C, PE-Cy7, CCR2 BV786 et CXCR4 BV421, CD45R/B220 PE Texas-Red, CD3E FITC, NK1.1 BV605 and CD69 PerCP-Cy5.5, Zombie-UV. Cells were incubated 20 min in the dark at 4° C., washed with PBS-2% FBS, and were fixed with paraformaldehyde 4% in 5 mL round-bottom polystyrene tubes (Falcon™ 352054). Compensation was adjusted with Ultracomp beads (ThermoFisher). All the antibodies were diluted at 1/200. All data were collected on LSR Fortessa flow cytometer (BD Bioscience, USA) and analyzed with FlowJo software. Statistical analysis. Outlier values farther than 2 standard deviation from the mean were not taken into account. Kruskal Wallis non-parametric test followed by Dunn's multiple comparisons test were performed for cytokines, One-Way Anova with Tukey's multiple comparisons test for flow cytometry data. *p<0.05, **p<0.01, ***p<0.001.

Q: With COc1cc(O)c(OC)c(O)c1C(=O)/C=C/c1ccccc1 [2,4-D, 2′,4′-dihydroxy-3′,6′-dimethoxychalcone] as the compound, how does the median graft survival ([1]; 2 mg/kg) read?
A: The median graft survival was 15 days.

Q: And the median graft survival ([1]; 10 mg/kg)?
A: The median graft survival was 19 days.

Q: What about the median graft survival ([1]; 50 mg/kg) of the same compound?
A: Its median graft survival is 24 days.

Q: What about the CCR2 [2] of the same compound?
A: Its CCR2 is “significantly reduced”.

Q: And the CXCR4 [2]?
A: Its CXCR4 is “tended to decrease”.

Q: What about the Ly6C pro-inflammatory marker [2] of the same compound?
A: The Ly6C pro-inflammatory marker was “tended to decrease”.

Q: What about the “anti-inflammatory CD206 marker” value [2] of the same compound?
A: The value was “did not reduce”.

From patent US20240335395A1, “COMPOSITIONS AND METHODS FOR PREVENTING AND/OR TREATING DISEASE ASSOCIATED WITH IL-23 EXPRESSION” (ALLSPIM, priority 2021, published 2024)
